{"source": "patent US20240342244A1", "about": "“Isthmin Protein Therapeutics for the Treatment of Non-Alcoholic Fatty Liver Disease” (The Board of Trustees of the Leland Stanford Junior …, priority 2021, published 2024)", "origin": "cited, not measured here", "test_system": "NAFLD mice", "settings": "daily injections at 30 mg/kg; after 14 days; cited from earlier work", "data": [{"smiles": "CC(C)c1onc(-c2c(Cl)cccc2Cl)c1COc1ccc(/C=C/c2cccc(C(=O)O)c2)c(Cl)c1", "note": "[GW4064]", "values": [{"measurement": "hepatic steatosis (previously shown)", "result": "significantly reduce hepatic steatosis"}]}]}
